Results published in publication PMC7827406, “Structure–Activity Relationship (SAR) Study of Spautin-1 to Entail the Discovery of Novel NEK4 Inhibitors” (International Journal of Molecular Sciences, 2021).
Like-named read-outs stand apart in the source and are kept apart here.

What was measured:
[1] = target: T1, LATS1(h) (Homo sapiens, UniProt O95835); test: biochemical; set-up: Eurofins KinaseProfiler full panel at Km ATP, residual kinase activity (%) relative to DMSO
T1 sequence (O95835 1-1130): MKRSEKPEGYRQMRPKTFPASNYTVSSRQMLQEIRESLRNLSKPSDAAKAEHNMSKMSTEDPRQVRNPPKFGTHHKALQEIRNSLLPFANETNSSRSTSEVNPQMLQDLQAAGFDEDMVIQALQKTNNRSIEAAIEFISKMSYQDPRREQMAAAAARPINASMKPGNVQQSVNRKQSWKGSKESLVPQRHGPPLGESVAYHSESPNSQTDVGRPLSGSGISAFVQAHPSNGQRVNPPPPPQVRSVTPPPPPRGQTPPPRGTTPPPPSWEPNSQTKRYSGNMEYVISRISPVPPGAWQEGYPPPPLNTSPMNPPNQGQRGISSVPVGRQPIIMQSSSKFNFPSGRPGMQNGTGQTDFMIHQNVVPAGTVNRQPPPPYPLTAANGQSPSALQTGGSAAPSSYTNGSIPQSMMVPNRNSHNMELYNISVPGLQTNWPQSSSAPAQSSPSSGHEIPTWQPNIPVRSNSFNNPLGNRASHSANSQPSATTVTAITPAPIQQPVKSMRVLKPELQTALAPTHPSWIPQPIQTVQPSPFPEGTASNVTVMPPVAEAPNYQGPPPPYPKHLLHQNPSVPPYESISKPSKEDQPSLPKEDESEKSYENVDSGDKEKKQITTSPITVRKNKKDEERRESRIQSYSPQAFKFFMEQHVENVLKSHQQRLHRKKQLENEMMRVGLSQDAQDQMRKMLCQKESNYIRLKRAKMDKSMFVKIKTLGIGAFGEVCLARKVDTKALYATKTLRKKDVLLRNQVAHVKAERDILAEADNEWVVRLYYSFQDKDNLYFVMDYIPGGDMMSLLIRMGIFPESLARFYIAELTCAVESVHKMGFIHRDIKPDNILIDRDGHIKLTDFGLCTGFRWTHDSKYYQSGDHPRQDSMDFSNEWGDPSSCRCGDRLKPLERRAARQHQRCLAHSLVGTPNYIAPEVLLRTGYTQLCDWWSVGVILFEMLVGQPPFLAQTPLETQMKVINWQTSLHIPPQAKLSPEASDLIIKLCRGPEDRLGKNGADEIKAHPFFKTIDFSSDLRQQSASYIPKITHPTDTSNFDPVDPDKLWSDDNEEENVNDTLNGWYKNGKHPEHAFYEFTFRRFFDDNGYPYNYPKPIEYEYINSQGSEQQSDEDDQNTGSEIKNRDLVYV
Outline: (§1)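 Compounds screened at 10 µM in radiometric kinase activity assays at Km ATP, reported as remaining kinase activity (%). A KINOMEscan competition-binding screen at 10 µM measured DNA-tagged kinase retained on immobilized active-site ligand by qPCR.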

[2] = target: T2, EphB4(h) (Homo sapiens, UniProt P54760); test: biochemical; set-up: Eurofins KinaseProfiler full panel at Km ATP, residual kinase activity (%) relative to DMSO
T2 sequence (P54760 1-987): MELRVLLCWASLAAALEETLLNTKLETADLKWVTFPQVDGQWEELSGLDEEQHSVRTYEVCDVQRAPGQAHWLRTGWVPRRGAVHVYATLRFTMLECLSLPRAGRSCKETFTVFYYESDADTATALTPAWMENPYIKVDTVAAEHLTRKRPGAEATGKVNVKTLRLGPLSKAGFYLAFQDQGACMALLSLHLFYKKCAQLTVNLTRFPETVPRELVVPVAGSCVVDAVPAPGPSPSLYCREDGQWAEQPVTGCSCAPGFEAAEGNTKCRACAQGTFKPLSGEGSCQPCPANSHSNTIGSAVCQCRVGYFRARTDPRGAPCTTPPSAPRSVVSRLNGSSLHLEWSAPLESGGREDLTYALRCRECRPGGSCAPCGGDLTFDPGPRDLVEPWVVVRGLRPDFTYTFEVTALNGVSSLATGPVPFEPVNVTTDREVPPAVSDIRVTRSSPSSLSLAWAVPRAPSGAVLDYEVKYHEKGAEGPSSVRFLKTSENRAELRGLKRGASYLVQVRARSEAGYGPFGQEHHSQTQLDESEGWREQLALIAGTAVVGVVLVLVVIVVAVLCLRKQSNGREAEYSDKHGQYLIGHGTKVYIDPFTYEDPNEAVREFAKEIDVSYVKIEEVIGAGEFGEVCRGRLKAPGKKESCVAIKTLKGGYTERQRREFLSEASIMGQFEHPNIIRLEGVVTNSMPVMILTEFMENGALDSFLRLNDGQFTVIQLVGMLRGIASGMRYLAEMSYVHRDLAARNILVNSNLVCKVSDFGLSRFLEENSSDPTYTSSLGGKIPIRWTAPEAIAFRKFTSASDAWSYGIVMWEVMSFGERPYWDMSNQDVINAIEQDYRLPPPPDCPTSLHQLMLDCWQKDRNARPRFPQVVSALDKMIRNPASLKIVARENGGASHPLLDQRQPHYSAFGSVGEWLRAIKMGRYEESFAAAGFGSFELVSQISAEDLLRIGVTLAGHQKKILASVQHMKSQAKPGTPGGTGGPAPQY
Outline: as §1

[3] = read-out: Residual activity (%) 5ay
[4] = read-out: Residual activity (%) Spautin-1 5aa
[5] = read-out: Residual activity (%) 5at
[6] = read-out: Residual activity (%) 5as

Q: For `COc1ccc2ncnc(Nc3cccc(F)c3)c2c1` [5ay, N-(3-Fluorophenyl)-6-Methoxy-4-Quinazolinamine], which remaining activity at 10 µM [1, 3] is on record?
A: 79%

Q: What about the remaining activity at 10 µM [2, 3] of the same compound?
A: 63%

Q: Which remaining activity at 10 µM [1, 4] does the source give for `Fc1ccc(CNc2ncnc3ccc(F)cc23)cc1` [5aa, 6-Fluoro-N-(4-fluorobenzyl)-4-Quinazolinamine] here?
A: 102%

Q: What about the remaining activity at 10 µM [2, 4] of the same compound?
A: 68%

Q: Which results are given for `Fc1ccc2ncnc(NCCc3ccc(Cl)cc3)c2c1` [5at, N-[2-(4-Chlorophenyl)Ethyl]-6-Fluoro-4-Quinazolinamine]?
A: remaining activity at 10 µM [1, 5]: 83%; remaining activity at 10 µM [2, 5]: 68%

Q: Which remaining activity at 10 µM [1, 6] does the source give for `Fc1ccc(CCNc2ncnc3ccc(F)cc23)cc1` [5as, 6-Fluoro-N-[2-(4-Fluorophenyl)Ethyl]-4-Quinazolinamine] here?
A: 79%

Q: And the remaining activity at 10 µM [2, 6]?
A: 59%
